Assay results reported in patent US20220281841A1, “ETHYNYLHETEROCYCLES AS RHO-ASSOCIATED COILED-COIL KINASE (ROCK) INHIBITORS” (Angion Biomedica Corp., priority 2019, published 2022).

What was measured:
ROCK2 = molecular target: T1, ROCK2 (Homo sapiens, UniProt O75116); assay: ROCK2 kinase binding affinity, DiscoverX KINOMEscan KdELECT; conditions: for ROCK 2 Selectivity: ROCK2 over ROCK1, from Kd values, N/C = not calculated; for Kd: equilibrium dissociation constant, 11-point 3-fold dilution series, read-out: Kd (μM) ROCK2
T1 construct: purchased DiscoverX (KINOMEscan KdELECT service); host or cells: E. coli BL21-derived (T7 phage) or HEK-293
T1 sequence (O75116 whole entry): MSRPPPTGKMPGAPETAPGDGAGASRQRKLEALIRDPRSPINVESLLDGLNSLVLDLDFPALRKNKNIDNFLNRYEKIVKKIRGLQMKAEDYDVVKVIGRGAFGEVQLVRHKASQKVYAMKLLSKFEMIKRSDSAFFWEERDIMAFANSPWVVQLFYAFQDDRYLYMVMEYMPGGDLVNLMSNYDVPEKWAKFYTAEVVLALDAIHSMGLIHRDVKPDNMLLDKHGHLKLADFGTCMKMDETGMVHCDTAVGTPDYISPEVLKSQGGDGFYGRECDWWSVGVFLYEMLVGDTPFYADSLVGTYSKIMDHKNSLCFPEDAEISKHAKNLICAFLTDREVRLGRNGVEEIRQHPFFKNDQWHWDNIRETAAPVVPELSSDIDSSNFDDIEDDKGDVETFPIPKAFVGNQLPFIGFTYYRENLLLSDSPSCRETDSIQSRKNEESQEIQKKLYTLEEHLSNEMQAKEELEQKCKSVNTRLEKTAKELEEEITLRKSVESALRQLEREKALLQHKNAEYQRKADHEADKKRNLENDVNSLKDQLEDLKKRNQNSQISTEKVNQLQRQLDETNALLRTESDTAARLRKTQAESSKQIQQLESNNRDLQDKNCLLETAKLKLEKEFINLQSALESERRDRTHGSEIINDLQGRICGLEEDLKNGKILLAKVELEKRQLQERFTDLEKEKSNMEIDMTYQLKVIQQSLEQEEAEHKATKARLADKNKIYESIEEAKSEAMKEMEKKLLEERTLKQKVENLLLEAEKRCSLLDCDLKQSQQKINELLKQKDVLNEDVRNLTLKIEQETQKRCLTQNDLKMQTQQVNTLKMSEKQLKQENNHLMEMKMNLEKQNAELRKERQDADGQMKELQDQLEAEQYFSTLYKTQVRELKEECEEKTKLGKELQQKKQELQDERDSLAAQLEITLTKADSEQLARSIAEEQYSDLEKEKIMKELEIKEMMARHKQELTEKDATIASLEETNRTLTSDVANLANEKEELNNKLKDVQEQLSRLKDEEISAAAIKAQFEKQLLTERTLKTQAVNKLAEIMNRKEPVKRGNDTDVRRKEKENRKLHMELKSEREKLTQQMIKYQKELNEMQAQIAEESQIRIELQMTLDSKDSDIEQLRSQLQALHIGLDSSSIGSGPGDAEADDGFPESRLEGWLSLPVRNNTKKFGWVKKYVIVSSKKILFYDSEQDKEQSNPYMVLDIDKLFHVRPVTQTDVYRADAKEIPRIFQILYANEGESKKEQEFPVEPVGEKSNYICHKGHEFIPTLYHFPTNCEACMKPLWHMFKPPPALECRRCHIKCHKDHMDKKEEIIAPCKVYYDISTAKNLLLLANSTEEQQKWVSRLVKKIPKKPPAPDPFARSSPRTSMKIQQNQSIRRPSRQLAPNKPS
Protocol: (§1) 1. ROCK1 and ROCK2 kinase assays: The ROCK1 and ROCK2 kinase binding affinities of compounds in this invention were determined by DiscoverX's KINOMEscan™ KdELECT technology (https://www.discoverx.com/kinomescan-elect-kinase-screening-and-profiling-services): Kinase-tagged T7 phage strains were prepared in an E. coli host derived from the BL21 strain. E. coli were grown to log-phase and infected with T7 phage and incubated with shaking at 32° C. until lysis. The lysates were centrifuged and filtered to remove cell debris. The remaining kinases were produced in HEK-293 cells and subsequently tagged with DNA for qPCR detection. Streptavidin-coated magnetic beads were treated with biotinylated small molecule ligands for 30 minutes at room temperature to generate affinity resins for kinase assays. The liganded beads were blocked with excess biotin and washed with blocking buffer (SeaBlock (Pierce), 1% BSA, 0.05% Tween 20, 1 mM DTT) to remove unbound ligand and to reduce nonspecific binding. […] Test compounds were prepared as 111X stocks in 100% DMSO. Kds were determined using an 11-point 3-fold compound dilution series with three DMSO control points. […] The compounds were then diluted directly into the assays such that the final concentration of DMSO was 0.9%. All reactions performed in polypropylene 384-well plate. Each was a final volume of 0.02 ml. […] The kinase concentration in the eluates was measured by qPCR.

ROCK1 = molecular target: T2, ROCK1 (Homo sapiens, UniProt Q13464); assay: ROCK1 kinase binding affinity, DiscoverX KINOMEscan KdELECT; conditions: equilibrium dissociation constant, 11-point 3-fold dilution series
T2 construct: purchased DiscoverX (KINOMEscan KdELECT service); host or cells: E. coli BL21-derived (T7 phage) or HEK-293
T2 sequence (Q13464 whole entry): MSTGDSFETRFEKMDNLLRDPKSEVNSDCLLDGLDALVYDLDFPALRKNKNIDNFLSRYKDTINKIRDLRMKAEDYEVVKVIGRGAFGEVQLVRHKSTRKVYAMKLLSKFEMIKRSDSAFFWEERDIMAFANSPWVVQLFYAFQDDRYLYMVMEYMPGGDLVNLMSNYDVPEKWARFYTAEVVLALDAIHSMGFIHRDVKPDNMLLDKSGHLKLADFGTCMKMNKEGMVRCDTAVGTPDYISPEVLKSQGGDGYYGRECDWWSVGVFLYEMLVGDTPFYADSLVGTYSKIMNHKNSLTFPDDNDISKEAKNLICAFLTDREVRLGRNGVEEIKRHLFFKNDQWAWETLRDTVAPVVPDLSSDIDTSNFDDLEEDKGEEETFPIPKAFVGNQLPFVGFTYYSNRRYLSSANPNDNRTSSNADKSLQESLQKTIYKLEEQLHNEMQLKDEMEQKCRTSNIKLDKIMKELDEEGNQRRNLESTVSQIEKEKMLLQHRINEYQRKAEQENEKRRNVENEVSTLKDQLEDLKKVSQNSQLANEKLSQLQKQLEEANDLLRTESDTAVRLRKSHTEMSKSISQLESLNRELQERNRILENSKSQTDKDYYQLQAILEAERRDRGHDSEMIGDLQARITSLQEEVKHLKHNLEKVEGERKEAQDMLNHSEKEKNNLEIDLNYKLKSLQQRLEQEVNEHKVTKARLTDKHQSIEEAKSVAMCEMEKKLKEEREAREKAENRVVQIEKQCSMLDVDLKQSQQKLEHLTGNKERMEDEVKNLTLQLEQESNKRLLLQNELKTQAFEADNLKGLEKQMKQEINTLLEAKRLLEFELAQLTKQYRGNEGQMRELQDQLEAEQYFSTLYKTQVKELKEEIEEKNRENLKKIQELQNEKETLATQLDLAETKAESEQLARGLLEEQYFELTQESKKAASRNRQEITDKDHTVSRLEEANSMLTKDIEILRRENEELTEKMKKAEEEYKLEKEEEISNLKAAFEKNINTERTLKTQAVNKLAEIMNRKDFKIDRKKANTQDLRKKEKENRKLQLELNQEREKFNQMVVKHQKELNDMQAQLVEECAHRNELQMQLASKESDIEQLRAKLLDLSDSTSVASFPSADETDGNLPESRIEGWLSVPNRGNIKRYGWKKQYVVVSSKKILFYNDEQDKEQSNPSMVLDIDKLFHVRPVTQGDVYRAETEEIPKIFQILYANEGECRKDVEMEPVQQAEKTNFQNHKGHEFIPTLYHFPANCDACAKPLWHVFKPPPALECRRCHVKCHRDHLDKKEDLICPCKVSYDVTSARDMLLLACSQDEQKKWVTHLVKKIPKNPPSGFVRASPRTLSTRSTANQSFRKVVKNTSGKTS
Protocol: as §1

[1] = tested on: murine autoimmune disease; conditions: cited from earlier work
fibroblasts = fibroblasts treated with KD025; cited from earlier work
[2] = 12-16 weeks of dosing in healthy volunteers and patients; cited from earlier work

SMILES | ROCK 2 Selectivity (ROCK2) | Kd (ROCK2) [µM] | Kd (ROCK1) [µM] | expression of pro-inflammatory, fibrosis-linked cytokines; autoimmune disease [1] | expression of profibrotic mRNA (fibroblasts) | hemodynamic or other side effects [2]
Fc1ccc(C2CCN(c3nccc(-c4nccc(C#Cc5ccc6[nH]ncc6c5)n4)n3)CC2)cc1 [Ex. 56, 5-((2′-(4-(4-Fluorophenyl)piperidin-1-yl)-[2,4′-bipyrimidin]-4-yl)ethynyl)-1H-indazole] | 35.6 | 0.73 | 26 |  |  | 
Clc1ccc(C2CN(c3nccc(-c4nccc(C#Cc5ccc6[nH]ncc6c5)n4)n3)C2)cc1 [Ex. 57, 5-((2′-(3-(4-Chlorophenyl)azetidin-1-yl)-[2,4′-bipyrimidin]-4-yl)ethynyl)-1H-indazole] | 30.5 | 0.22 | 6.7 |  |  | 
C(#Cc1ccnc(-c2ccnc(N3CCN(c4ncc[nH]4)CC3)n2)n1)c1ccc2[nH]ncc2c1 [Ex. 58, 5-((2′-(4-(1H-Imidazol-2-yl)piperazin-1-yl)-[2,4′-bipyrimidin]-4-yl)ethynyl)-1H-indazole] | 5 | 0.32 | 1.6 |  |  | 
C(#Cc1ccnc(-c2ccnc(N3CCn4cnnc4C3)n2)n1)c1ccc2[nH]ncc2c1 [Ex. 59, 7-(4-((1H-Indazol-5-yl)ethynyl)-[2,4′-bipyrimidin]-2′-yl)-5,6,7,8-tetrahydro-[1,2,4]triazolo[4,3-a]pyrazine] | 21.3 | 0.75 | 16 |  |  | 
FC(F)(F)c1nnc2n1CCN(c1nccc(-c3nccc(C#Cc4ccc5[nH]ncc5c4)n3)n1)C2 [Ex. 60, 7-(4-((1H-Indazol-5-yl)ethynyl)-[2,4′-bipyrimidin]-2′-yl)-3-(trifluoromethyl)-5,6,7,8-tetrahydro-[1,2,4]triazolo[4,3-a]pyrazine] | 47.1 | 0.21 | 9.9 |  |  | 
Clc1ccc(N2CCN(c3nccc(-c4nccc(C#Cc5ccc6[nH]ncc6c5)n4)n3)CC2)cc1 [Ex. 61, 5-((2′-(4-(4-Chlorophenyl)piperazin-1-yl)-[2,4′-bipyrimidin]-4-yl)ethynyl)-1H-indazole] | 44.9 | 0.49 | 22 |  |  | 
Oc1ccc(N2CCN(c3nccc(-c4nccc(C#Cc5ccc6[nH]ncc6c5)n4)n3)CC2)cc1 [Ex. 62, 4-(4-(4-((1H-Indazol-5-yl)ethynyl)-[2,4′-bipyrimidin]-2′-yl)piperazin-1-yl)phenol] | 118.2 | 0.11 | 13 |  |  | 
CC(C)NC(=O)COc1cccc(-c2nc(Nc3ccc4[nH]ncc4c3)c3ccccc3n2)c1 [KD025] |  |  |  | decreased expression of pro-inflammatory, fibrosis-linked cytokines and mitigated murine autoimmune disease | decreased expression of several profibrotic mRNA including that of CTGF | no hemodynamic or other side effects

Further lines, with some results ahead:

ROCK 2 Selectivity (ROCK2) | Kd (ROCK2) [µM] | Kd (ROCK1) [µM] | SMILES | expression of pro-inflammatory, fibrosis-linked cytokines; autoimmune disease [1] | expression of profibrotic mRNA (fibroblasts) | hemodynamic or other side effects [2]
>90.9 | 0.33 | > 30 | C(#Cc1ccnc(-c2ccnc(N3CCN(c4nccs4)CC3)n2)n1)c1ccc2[nH]ncc2c1 [Ex. 63, 2-(4-(4-((1H-Indazol-5-yl)ethynyl)-[2,4′-bipyrimidin]-2′-yl)piperazin-1-yl)thiazole] |  |  | 
10.3 | 0.33 | 3.4 | Cc1nnc2n1CCN(c1nccc(-c3nccc(C#Cc4ccc5[nH]ncc5c4)n3)n1)C2 [Ex. 64, 7-(4-((1H-Indazol-5-yl)ethynyl)-[2,4′-bipyrimidin]-2′-yl)-3-methyl-5,6,7,8-tetrahydro-[1,2,4]triazolo[4,3-a]pyrazine] |  |  | 
142 | 0.024 | 3.4 | C(#Cc1ccnc(-c2ccnc(N3Cc4ncsc4C3)n2)n1)c1ccc2[nH]ncc2c1 [Ex. 65, 5-(4-((1H-Indazol-5-yl)ethynyl)-[2,4′-bipyrimidin]-2′-yl)-5,6-dihydro-4H-pyrrolo[3,4-d]thiazole] |  |  | 
36.2 | 0.26 | 9.4 | C(#Cc1ccnc(-c2ccnc(N3CCC(c4ccccc4)C3)n2)n1)c1ccc2[nH]ncc2c1 (stereo not drawn) [Ex. 69, 5-((2′-(3-Phenylpyrrolidin-1-yl)-[2,4′-bipyrimidin]-4-yl)ethynyl)-1H-indazole] |  |  | 
27.7 | 0.22 | 6.1 | COc1cccc(C2CCN(c3nccc(-c4nccc(C#Cc5ccc6[nH]ncc6c5)n4)n3)C2)c1 (stereo not drawn) [Ex. 70, 5-((2′-(3-(3-Methoxyphenyl)pyrrolidin-1-yl)-[2,4′-bipyrimidin]-4-yl)ethynyl)-1H-indazole] |  |  | 
36.1 | 0.36 | 13 | Fc1ccc(C2CCN(c3nccc(-c4nccc(C#Cc5ccc6[nH]ncc6c5)n4)n3)C2)cc1 (stereo not drawn) [Ex. 71, 5-((2′-(3-(4-Fluorophenyl)pyrrolidin-1-yl)-[2,4′-bipyrimidin]-4-yl)ethynyl)-1H-indazole] |  |  | 
